Entries after “also recorded” stand apart in the source; their conditions may differ. Where no end group is shown, it is not given here.
System: ILCs sorted from the lungs of naive mice
Test: ILC in vitro culture: Il5/Il13 mRNA (qPCR) and IL-5/IL-13 in supernatant (LegendPlex)
Type: cell-based, mouse
Procedure: (§1) Fluorescence-activated cell sorting of innate lymphoid cells. After dissociation, single cell suspensions were incubated with CD90.2 MicroBeads (Miltenyi Biotec) on ice and enriched for CD90.2^+ cells by magnetic separation using LS columns according to the manufacturer's protocol. CD90.2^+ lung cells were then stained on ice with antibodies for sorting. ILCs were defined as 7AAD^− CD45^+ CD90.2^+ CD127^+ Lineage (CD11b, CD11c, CD19, NK1.1, CD3ε, CD4, CD8a, TCRβ, TCRγδ)^− cells and sorted on a BD FACS Aria (BD Biosciences).
ILC in vitro culture. For in vitro experiments 5,000 ILCs/well were cultured in a 96 well round bottom plate with 20 ng/ml IL-7 (R&D Systems), 200 ng/ml IL-33 (BioLegend) or 200 ng/ml IL-25 (R&D Systems) with or without 1 μg/ml Neuromedin U (US Biological). In some cases purified CD90.2^+ lung cells were first labeled with CellTrace Violet (Thermo Fisher Scientific), then sorted as described above, and cultured for 3 days under the indicated conditions.
(§2) Quantitative real-time PCR. RNA was isolated using RNeasy Plus Mini Kit (Qiagen) and reverse transcribed to cDNA with iScript cDNA Synthesis Kit (Bio-Rad). Gene expression was analyzed by quantitative real-time PCR on a ViiA7 System (Thermo Fisher Scientific) using TaqMan Fast Advanced Master Mix (Thermo Fisher Scientific) with the following primer/probe sets: IL-5 (Mm00439646_m1), IL-13 (Mm00434204_m1), IL-17RB (Mm00444709_m1), Nmur1 (Mm04207994 m1), Nmur2 (Mm00600704_m1), and β-Actin (Applied Biosystems). Expression values were calculated relative to β-Actin detected in the same sample by duplex qPCR.
Cytokine quantification. Cytokine concentrations in BAL fluid, lung and supernatant of in vitro ILC cultures were analyzed by the LegendPlex Mouse Th Cytokine Panel (13-plex) (BioLegend) according to the manufacturer's instructions and analyzed on a FACS Calibur (BD Biosciences).
as §1, with “protocol. CD90.2^−” for “protocol. CD90.2^+”, “(CD11b, CD 11c,” for “(CD11b, CD11c,”
ILC in vitro culture. For in vitro experiments 5,000 ILCs/well were cultured in a 96 well round bottom plate with 20 ng/ml IL-7 (R&D Systems), 200 ng/ml IL-25 (R&D Systems) or 20 ng/ml, 2 ng/ml or 0.2 ng/ml IL-33 (BioLegend) with or without 1 μg/ml Neuromedin U (US Biological). In some cases purified CD90.2^+ lung cells were first labeled with CellTrace Violet (Thermo Fisher Scientific), then sorted as described above, and cultured for 3 days under the indicated conditions.
as §2, with “Il5” for “IL-5”, “Il13” for “IL-13”, “Il17rb” for “IL-17RB”, “(Mm04207994_m1),” for “(Mm04207994 m1),”, “(Mm00600704_m1), Nmu (Mm00479868_m1)” for “(Mm00600704_m1),”, “Actb” for “β-Actin”

For “Neuromedin U (FRVDEEFQSPFASQSRGYFLFRPRN-NH2; listed as Homo sapiens) [NMU, neuropeptide ligand of Nmur1 (US Biological)]”, the “Il5 and Il13 levels, NMU in combination with IL-33” value (Example 1: ILCs in vitro, IL-33 200 ng/ml with NMU 1 μg/ml vs IL-33 alone) was “did not significantly alter; also recorded: neither amplifies”, the “IL-33-induced IL-5 and IL-13 secretion with NMU” value (Example 2: ILCs in vitro, IL-33 20, 2 or 0.2 ng/ml with NMU 1 μg/ml, LegendPlex) was “enhanced” and the “Il5 and Il13 expression in ILCs cultured in vitro” value (IL-7 20 ng/ml, IL-25 200 ng/ml, IL-33, NMU 1 μg/ml, mRNA by qPCR (protein by LegendPlex)) was “modest upregulation; also recorded: far lower than those observed in response to IL-25 and IL-33; also recorded: only mildly upregulated”. The “increase of IL-5 and IL-13 protein levels in response to IL-25” value (ILCs in vitro, IL-25 in conjunction with NMU vs IL-25 alone, LegendPlex) was “at least 8 fold” and the “increase of Il5 and Il13 mRNA levels in response to IL-25” value (ILCs in vitro, IL-25 in conjunction with NMU vs IL-25 alone, qPCR) was “at least 3.6 fold”.

Source: patent US12161694B2, “Methods and compositions for regulating innate lymphoid cell inflammatory responses” (The Broad Institute, Inc., priority 2017, dated 2024)
